Test results reported in patent US12624068B2, “Exon skipping by peptide nucleic acid derivatives” (OliPass Corporation, priority 2016, dated 2026).
[C(1O2)] = modified PNA monomer acting as cytosine, C(pOq) type, 1O2; [A(5)] = modified PNA monomer acting as adenine, A(p) type, p=5; [A(6)] = modified PNA monomer acting as adenine, A(p) type, p=6; [G(5)] = modified PNA monomer acting as guanine, G(p) type, p=5; {Fethoc} = N-terminal Fethoc cap; {NH2} = C-terminal amide

Experiments:
[1] = test system: 10-mer complementary DNA; assay: Tm between PNA derivatives and 10-mer complementary DNA (N- or C-terminal); type: binding; details: uncorrected
Outline: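 Tm read by UV at 260 nm for duplexes formed by annealing (90 °C for a minute, slow cooling to ambient) of equimolar 4 μM PNA and complementary 10-mer DNA targeting N- or C-terminal, in 10 mM sodium phosphate, 100 mM NaCl, pH 7.16.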

[2] = test system: rat SNAP25 pre-mRNA; assay: SNAP25 nested PCR for exon skipping in PC12 cells; type: cell-based
Procedure: PC12 cells were maintained in RPMI 1640 medium supplemented with 5% FBS, 10% horse serum, 1% streptomycin/penicillin, 1% L-glutamine, and 1% sodium pyruvate under 5% CO2 atmosphere at 37° C. Cells grown in 60 mm culture dish containing 5 mL culture medium were treated with “SNAP-ASO 3” at 0 (negative control), 10, 100 or 1,000 zM. [RNA Extraction & cDNA Synthesis by One-step PCR] Following an incubation with “SNAP-ASO 3” for 42 hours, the cells were treated with 100 μg/mL cycloheximide for another 6 hours in order to freeze the ribosomal translation. Then total RNA was extracted using “Universal RNA Extraction Kit” (Cat. Number 9767, Takara) according to the manufacturer's instructions. […] NO: 126); and SNAP-exon 14_reverse: (5'→3') […] [Nested PCR Amplification] […] NO: 128); SNAP-exon 14n_reverse: (5'→3') […] [Identification of Exon Skipping Products] The PCR products were subjected to electrophoretic separation on a 2% agarose gel. The bands of target size were collected and analyzed by Sanger Sequencing.

[3] = test system: full-length SNAP25 mRNA; assay: SNAP25 nested qPCR in PC12 cells; type: cell-based, rat
Procedure: [Cell Culture & ASO Treatment] PC12 cells grown in 60 mm culture dish containing 5 mL culture medium were treated with “SNAP-ASO 3” at 0 (negative control), 10, 100 or 1,000 zM. (2 culture dishes per ASO concentration) [RNA Extraction & cDNA Synthesis by One-step RT-PCR] Following an incubation with “SNAP-ASO 3” for 42 hours, the cells were treated 100 μg/mL cycloheximide for another 6 hours to freeze the ribosomal translation. Then total RNA was extracted from cells using “Universal RNA Extraction Kit” (Cat. Number 9767, Takara) according to the manufacturer's instructions. […] NO: 130); and SNAP-exon 14_reverse: (5'→3') […] [Nested qPCR Amplification] […] NO: 132); and SNAP-exon 8q_reverse: (5'→3') […] The qPCR reaction was followed with a Taqman probe of [(5'→3') 5,6-[…] NO: 134)] targeting the junction of exon 7 and exon 8 in order to quantify the full-length SNAP25 mRNA.

[4] = test system: full-length human SNAP25 mRNA; assay: SNAP25 qPCR in SiMa cells; type: cell-based; details: 100 aM
Procedure: [Cell Culture & ASO Treatment] SiMa cells were grown in 60 mm culture dish containing 5 mL culture medium, and were treated with “SNAP-ASO 3” at 0 zM (negative control), 1 zM, 10 zM, 100 zM or 1 aM, 10 aM, or 100 aM. (2 culture dishes per ASO concentration) [RNA Extraction & cDNA Synthesis] Total RNA was extracted from cells using “RNeasy Mini Kit” (Cat. Number 74106, Qiagen) according to the manufacturer's instructions. […] [qPCR Amplification] The PCR reactions were monitored with a Taqman probe [(5' 3') 56-[…] NO: 137)] targeting the junction of exon 6 and exon 7 against a set of exon-specific primers [SNAP-exon 6_forward: (5'→3') […] NO: 138); and SNAP-exon 8_reverse(2): (5'→3') […] NO: 139)].

[5] = test system: mdx mice; assay: Unscheduled death, sacrifice or lymphoma in chronically treated mdx mice; type: in vivo, mouse; details: DMD-ASO 1 50 pmole/Kg, DMD-ASO 2 or DMD-ASO 6 10 pmole/Kg, subcutaneous 2× per week, 66 weeks
Text: [Grouping & ASO Treatment] Male mdx mice (7 weeks old) were randomly assigned to 4 groups of 0 (mdx negative control), 10, 50, and 200 pmole/Kg “DMD-ASO 1” based on individual grip strength scores by grip test. (N=12 per group) A satellite group of 12 male C57BL/6 mice (7 weeks old) was included in this study as the wild type negative control group for the full-length dystrophin expression level.
The 50 and 200 pmole/Kg group subcutaneously received “DMD-ASO 1” as dissolved in PBS, 2× per week until the final sacrifice in Week 43. In the meantime, the 10 pmole/Kg group subcutaneously received “DMD-ASO 1” initially 2× per week during Week 0 to 8, and 3× per week afterwards to increase the ASO exposure.
[Miscellaneous Findings] There were three cases of unscheduled sacrifice or death (Weeks 26, 39 and 43) in the mdx negative control group due to a large mass of muscular lymphoma developed most likely by chronic muscular inflammation.
“DMD-ASO 1”, “DMD-ASO 2” and “DMD-ASO 6” were evaluated for their physiological effects in male mdx mice by long term subcutaneous administration. In this evaluation the animals were not subjected to physical tests requiring muscular stress in order to keep the transcription of the dystrophin gene undisturbed by excessive muscular stimulation.
[Animals & Grouping] Male mdx mice (6 weeks old) were randomly assigned to 4 groups of the mdx negative control (no ASO treatment), “DMD-ASO 1” 50 pmole/Kg, “DMD-ASO 2” […], and “DMD-ASO 6” […] based on the body weight. (N=12-13 per group) 12 male C57BL/6 mice (6 weeks old) were adopted as the wild type (WT) negative control group.
[Injection Solutions & ASO Treatment] Aqueous mother stock solutions of the ASOs were serially diluted in PBS to prepare the injection solutions of 25 nM “DMD-ASO 1” for 50 pmole/Kg “DMD-ASO 1”, 5 nM “DMD-ASO 2” for “DMD-ASO 2” 10 pmole/Kg, and 5 nM “DMD-ASO 6” for “DMD-ASO 6” 10 pmole/Kg. The animals were subcutaneously administered with the injection solutions at 2 mL/Kg, 2× per week.

[6] = test system: mdx mice; assay: Walking distance on tread mill in mdx mice; type: in vivo, mouse; details: first 30 weeks, injection solutions without Tween 80
Procedure: “DMD-ASO 2” was chronically administered to mdx mice to evaluate its ability to improve muscle function by the walking distance on tread mill, and to inhibit the muscle degradation by the serum levels of creatine kinase (CK) and myoglobin.
[Animals & Grouping] Male mdx mice (6 weeks old) were randomly assigned to three groups of the mdx negative control (no ASO treatment), “DMD-ASO 2” 10 pmole/Kg, and “DMD-ASO 2” […] based on the body weight. (N=16 per group) 12 male C57BL/6 mice (6 weeks old) were adopted as the wild type (WT) negative control group.
[Injection Solutions & ASO Treatment] An aqueous mother stock solution of “DMD-ASO 2” was diluted either in PBS or in PBS supplemented with 0.1% Tween 80 to prepare injection solutions of […] “DMD-ASO 2” for 10 pmole/Kg and 30 pmole/Kg “DMD-ASO 2”, respectively. Supplementation of PBS injection solution with 0.1% Tween 80 was considered to be necessary to prevent the ASO molecules from sticking to plastic injection vials, pipette tips, and syringes.
[Walking Distance on Tread Mill] During the first 30 weeks post grouping, the animals were administered with the injection solutions without Tween 80 2× per week at 2 mL/Kg. Starting from Week 7, the animals were subjected to walking on a tread mill (Model #LE8710, PanLab) on a weekly basis. […]

[7] = test system: serum creatine kinase (CK); assay: Serum creatine kinase level in mdx mice; type: in vivo; details: Week 48
Procedure: (§1) [Terminal Sacrifice] In Week 48, the animals were subjected to terminal sacrifice for blood sampling. The blood samples were analyzed for the serum level of CK (Creatine Kinase Activity Assay Kit, Cat. Number ab155901, Abcam) and myoglobin (Myoglobin ELISA Kit, Cat. Number ab210965, Abcam) to assess the degree of muscle degradation according to the manufacturer's instructions. Muscle tissues were analyzed by western blot for the full-length dystrophin.
(§2) [Terminal Sacrifice] All the survived animals were sacrificed for blood sampling in Week 66 post the grouping. The blood samples were subjected to ELISA assays for serum creatine kinase (CK) and serum myoglobin as described in “DMD Example 6”.

[8] = test system: serum myoglobin; assay: Serum myoglobin level in mdx mice; type: in vivo
Procedure: as §1, §2

[9] = test system: full-length dystrophin; assay: Dystrophin western blot in triceps of mdx mice; type: in vivo; details: Week 48
Procedure: [Full-length Dystrophin Expression in Triceps by Western Blot] Following homogenization at liquid nitrogen temperature, muscle (triceps) samples were subjected to lysis in RIPA buffer supplemented with 1% SDS. The protein concentration in each lysate was quantified by BCA assay against the BSA standard. […] of protein of each lysate was subjected to electrophoretic separation on an 8% PAGE gel. Then the PVDF membrane was probed with a C-terminal targeting dystrophin antibody (Cat. Number ab154168, Abcam).

| Substance | Tm Value, 10-mer DNA against C-Terminal [1] | Tm Value, 10-mer DNA against N-Terminal [1] | intensity of the full-length SNAP25 mRNA by nested PCR ([2]; PC12 cells, 10, 100 or 1,000 zM) | SNAP25 exon skipping by nested PCR ([2]; PC12 cells, 10 zM, 42 hours then cycloheximide 6 hours) | decrease of full-length SNAP25 mRNA level (qPCR) ([3]; PC12 cells, 10 zM) | decrease of full-length SNAP25 mRNA level (qPCR) ([3]; PC12 cells, 100 zM) | decrease of full-length SNAP25 mRNA level (qPCR) ([3]; PC12 cells, 1,000 zM) | inhibition of full-length human SNAP25 mRNA level (qPCR) [4] | premature deaths (unscheduled death or sacrifice) [5] | walking distance on tread mill compared to the mdx negative control group [6] | serum CK level smaller than the mdx negative control group by ([7]; 10 pmole/Kg) | serum CK level smaller than the mdx negative control group by ([7]; 30 pmole/Kg) | serum myoglobin level smaller than the mdx negative control group by ([8]; 10 pmole/Kg, Week 48) | serum myoglobin level smaller than the mdx negative control group by ([8]; 30 pmole/Kg, Week 48) | serum myoglobin level smaller than the mdx negative control group by ([8]; DMD-ASO 1 50 pmole/Kg, DMD-ASO 2 or DMD-ASO 6 10 pmole/Kg, 2× per week, Week 66) | 130K dystrophin band intensity (western blot, triceps) ([9]; 10 pmole/Kg) | 117K dystrophin band (western blot, triceps) ([9]; 10 and 30 pmole/Kg) |
| --- | --- | --- | --- | --- | --- | --- | --- | --- | --- | --- | --- | --- | --- | --- | --- | --- | --- |
| Fethoc-TG(5)T-TA(6)C-C(1O2)CT-GG(5)G-A(5)T-NH2 (antisense TGTTACCCTGGGAT; all peptide nucleic acid (PNA), [G(5)] at 2, 11, [A(6)] at 5, [C(1O2)] at 7, [A(5)] at 13, 5' {Fethoc}, 3' {NH2}; peptide nucleic acid written N to C) [SNAP-ASO 3] | 88.7 °C | 77.3 °C | decreased most in the cells treated with 10 zM | yielded a faint PCR band assignable to the skipping of exons 5-7 | ~50% | 20% | slightly higher than the level of the cells without ASO treatment | 40% |  |  |  |  |  |  |  |  |  |
| Fethoc-TTG(6)CA(5)G-AG(6)C-C(1O2)TC-AA(5)A-A(5)T-NH2 (antisense TTGCAGAGCCTCAAAAT; Fethoc N-cap, C-terminal amide, chemistry not fully specified) [DMD-ASO 2] |  |  |  |  |  |  |  |  | one death in Week 56 and another in Week 62 | failed to show any significant improvements | 58% | 38% | 67% | 58% | 49% | considerably stronger | markedly stronger |
